Measurements from patent US8426408B2, “Pyrimidine inhibitors of kinases” (AbbVie Inc., priority 2009, dated 2013).

Experiments:
[1] = molecular target: T1, Aurora B (Homo sapiens, UniProt Q96GD4); test: Aurora B enzyme inhibition (time-resolved fluorescence, histone H3 peptide); assay type: biochemical; settings: 1 mM ATP
T1 construct: Active Aurora B enzyme (recombinant residues 1-344)
How it was run: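 IC50s came from an exponential fit of inhibition against inhibitor concentration, with phosphorylation read as the 665/615 nm time-resolved fluorescence ratio after EDTA stop using Eu-anti-phospho-H3 and SA-APC. The 1 h reaction used Aurora B 1-344 plus GST-INCENP, biotin-histone H3 1-21 peptide and 1 mM ATP in pH 7.4 HEPES buffer.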

[2] = molecular target: T2, KDR (Homo sapiens, UniProt P35968); test: KDR HTRF in vitro kinase assay; assay type: biochemical; design: purified enzyme (His6-KDR 789-1354, MW 63 kD); His6 (N); settings: 1 mM ATP; read-out: KDR enzyme inhibition data (Ki)
How it was run: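 His6-KDR 789-1354 (7 ng/well) with 0.5 μM biotinylated peptide substrate and 1 mM ATP in HEPES pH 7.1, MgCl2/MnCl2, 60 min at room temperature. EDTA-quenched, detected by streptavidin-XL-665 plus Eu-kryptate anti-phosphotyrosine HTRF after 3 h; IC50 from 620/665 nm ratio.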
Target sequence in this assay (P35968 789-1354): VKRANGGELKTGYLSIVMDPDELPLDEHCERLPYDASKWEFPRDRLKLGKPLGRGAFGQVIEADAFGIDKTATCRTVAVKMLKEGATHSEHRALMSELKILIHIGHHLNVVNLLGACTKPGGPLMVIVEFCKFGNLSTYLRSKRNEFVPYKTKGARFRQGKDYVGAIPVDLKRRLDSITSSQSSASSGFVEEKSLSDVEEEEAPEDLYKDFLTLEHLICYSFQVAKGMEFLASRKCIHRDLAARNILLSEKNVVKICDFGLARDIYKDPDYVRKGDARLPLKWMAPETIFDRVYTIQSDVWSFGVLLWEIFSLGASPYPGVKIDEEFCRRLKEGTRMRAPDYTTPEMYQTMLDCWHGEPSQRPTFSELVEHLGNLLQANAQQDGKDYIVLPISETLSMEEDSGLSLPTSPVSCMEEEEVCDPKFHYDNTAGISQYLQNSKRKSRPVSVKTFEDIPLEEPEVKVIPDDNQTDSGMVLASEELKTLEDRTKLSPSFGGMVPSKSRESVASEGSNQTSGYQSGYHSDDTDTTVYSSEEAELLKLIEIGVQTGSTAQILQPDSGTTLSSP

[3] = molecular target: T2, KDR; test: KDR cellular assay (KDR receptor phosphorylation ELISA); assay type: cell-based; design: expressed in transfected cells; host or cells: 3T3 (embryonic mouse) cells; settings: KDR transfected 3T3 (embryonic mouse) cells, VEGF stimulated; read-out: IC50 inhibition of KDR phosphorylation
How it was run: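 Phospho-KDR measured by capture ELISA (anti-KDR coat, biotinylated detection, streptavidin-HRP, 450 nm) in lysates of KDR-expressing 3T3 mouse fibroblasts. Cells saw compound 20 min at 37° C before 10 min VEGF challenge (100 ng/ml solution); IC50 from non-linear regression of half-log dose series.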
Target sequence in this assay (P35968 20-1356): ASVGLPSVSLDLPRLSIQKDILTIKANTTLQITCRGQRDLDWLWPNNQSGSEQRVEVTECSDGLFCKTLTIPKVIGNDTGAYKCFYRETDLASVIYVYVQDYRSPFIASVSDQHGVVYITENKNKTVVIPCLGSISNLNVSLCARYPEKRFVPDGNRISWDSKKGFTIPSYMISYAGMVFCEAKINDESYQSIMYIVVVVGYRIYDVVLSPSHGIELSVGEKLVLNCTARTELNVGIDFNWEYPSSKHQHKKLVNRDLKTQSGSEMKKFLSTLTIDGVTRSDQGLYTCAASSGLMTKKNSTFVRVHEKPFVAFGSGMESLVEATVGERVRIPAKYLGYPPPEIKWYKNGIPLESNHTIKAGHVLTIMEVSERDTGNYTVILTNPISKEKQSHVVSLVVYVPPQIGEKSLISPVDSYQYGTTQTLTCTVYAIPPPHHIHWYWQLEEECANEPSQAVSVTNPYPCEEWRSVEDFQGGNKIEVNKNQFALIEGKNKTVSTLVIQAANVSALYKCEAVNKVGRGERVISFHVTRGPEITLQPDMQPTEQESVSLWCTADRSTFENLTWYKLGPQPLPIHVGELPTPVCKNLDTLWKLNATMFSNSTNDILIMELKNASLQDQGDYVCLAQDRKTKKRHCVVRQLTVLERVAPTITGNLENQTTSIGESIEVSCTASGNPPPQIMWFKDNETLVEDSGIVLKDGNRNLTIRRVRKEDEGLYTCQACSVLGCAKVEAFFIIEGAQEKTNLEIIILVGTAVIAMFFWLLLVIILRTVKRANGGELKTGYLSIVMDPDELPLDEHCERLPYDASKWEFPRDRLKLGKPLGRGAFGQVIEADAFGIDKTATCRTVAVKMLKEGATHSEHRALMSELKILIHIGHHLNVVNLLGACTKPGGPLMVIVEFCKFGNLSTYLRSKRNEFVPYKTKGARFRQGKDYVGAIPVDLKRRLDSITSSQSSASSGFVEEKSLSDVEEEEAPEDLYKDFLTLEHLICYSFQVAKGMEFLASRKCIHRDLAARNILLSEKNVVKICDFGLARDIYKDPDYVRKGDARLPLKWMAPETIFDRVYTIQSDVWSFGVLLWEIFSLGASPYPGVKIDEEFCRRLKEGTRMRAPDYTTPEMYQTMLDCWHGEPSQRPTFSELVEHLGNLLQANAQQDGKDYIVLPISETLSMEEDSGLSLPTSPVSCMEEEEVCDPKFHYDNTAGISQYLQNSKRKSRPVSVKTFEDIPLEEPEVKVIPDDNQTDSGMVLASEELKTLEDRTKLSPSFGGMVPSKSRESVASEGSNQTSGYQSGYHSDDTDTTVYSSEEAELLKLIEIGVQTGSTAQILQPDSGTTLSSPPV

T1 sequence (Q96GD4 whole entry, the tested form may be a part): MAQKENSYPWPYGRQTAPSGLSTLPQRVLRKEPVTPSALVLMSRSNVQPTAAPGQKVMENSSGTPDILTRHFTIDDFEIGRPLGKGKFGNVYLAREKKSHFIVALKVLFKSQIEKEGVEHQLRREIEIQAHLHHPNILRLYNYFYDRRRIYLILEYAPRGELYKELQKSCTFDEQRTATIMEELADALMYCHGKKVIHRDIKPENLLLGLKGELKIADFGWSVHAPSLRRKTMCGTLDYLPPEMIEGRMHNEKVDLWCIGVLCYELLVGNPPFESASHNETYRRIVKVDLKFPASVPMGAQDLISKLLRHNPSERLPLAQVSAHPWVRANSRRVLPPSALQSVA
T1 sequence (Q9NQS7 826-918 partner limits assumed): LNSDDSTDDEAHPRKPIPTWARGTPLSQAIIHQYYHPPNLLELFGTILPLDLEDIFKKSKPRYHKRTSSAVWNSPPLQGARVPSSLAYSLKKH

Row | Ki [1] [nM] | Ki [2] [nM] | IC50 [3] [nM] | SMILES
1 | < 100 | < 100 | < 100 | NC(=O)[C@@H]1[C@H](Nc2nc(Nc3cnn(Cc4ccccc4)c3)ncc2Br)[C@H]2C=C[C@@H]1C2 [Example 149, (1S,2S,3R,4R)-3-({2-[(1-benzyl-1H-pyrazol-4-yl)amino]-5-bromopyrimidin-4-yl}amino)bicyclo[2.2.1]hept-5-ene-2-carboxamide]
2 | < 100 | < 100 | 100 to 1000 | Cn1cc(Nc2ncc(C(F)(F)F)c(Nc3ccsc3C(N)=O)n2)cn1 [Example 150, 3-({2-[(1-methyl-1H-pyrazol-4-yl)amino]-5-(trifluoromethyl)pyrimidin-4-yl}amino)thiophene-2-carboxamide]
3 | < 100 | < 100 | 100 to 1000 | COc1cccc(CCn2cc(Nc3ncc(Cl)c(N[C@H]4[C@@H](C(N)=O)[C@@H]5C=C[C@H]4C5)n3)cn2)c1 [Example 154, (1S,2S,3R,4R)-3-{[5-chloro-2-({1-[2-(3-methoxyphenyl)ethyl]-1H-pyrazol-4-yl}amino)pyrimidin-4-yl]amino}bicyclo[2.2.1]hept-5-ene-2-carboxamide]
4 | < 100 | < 100 | < 100 | COc1cccc(Cn2cc(Nc3ncc(Cl)c(N[C@H]4[C@@H](C(N)=O)[C@@H]5C=C[C@H]4C5)n3)cn2)c1 [Example 155, (1S,2S,3R,4R)-3-[(5-chloro-2-{[1-(3-methoxybenzyl)-1H-pyrazol-4-yl]amino}pyrimidin-4-yl)amino]bicyclo[2.2.1]hept-5-ene-2-carboxamide]
5 | < 100 | < 100 | < 100 | NC(=O)[C@@H]1[C@H](Nc2nc(Nc3cnn(Cc4cccc(Cl)c4)c3)ncc2Cl)[C@H]2C=C[C@@H]1C2 [Example 157, (1S,2S,3R,4R)-3-[(5-chloro-2-{[1-(3-chlorobenzyl)-1H-pyrazol-4-yl]amino}pyrimidin-4-yl)amino]bicyclo[2.2.1]hept-5-ene-2-carboxamide]
6 | < 100 | < 100 | 100 to 1000 | NC(=O)[C@@H]1[C@H](Nc2nc(Nc3cnn(CCc4cccc(Cl)c4)c3)ncc2Cl)[C@H]2C=C[C@@H]1C2 [Example 158, (1S,2S,3R,4R)-3-{[5-chloro-2-({1-[2-(3-chlorophenyl)ethyl]-1H-pyrazol-4-yl}amino)pyrimidin-4-yl]amino}bicyclo[2.2.1]hept-5-ene-2-carboxamide]
7 | < 100 | < 100 | < 100 | COc1cccc(Cn2cc(Nc3ncc(Br)c(N[C@H]4[C@@H](C(N)=O)[C@@H]5C=C[C@H]4C5)n3)cn2)c1 [Example 159, (1S,2S,3R,4R)-3-[(5-bromo-2-{[1-(3-methoxybenzyl)-1H-pyrazol-4-yl]amino}pyrimidin-4-yl)amino]bicyclo[2.2.1]hept-5-ene-2-carboxamide]
8 | < 100 | < 100 | < 100 | COc1cccc(CCn2cc(Nc3ncc(Br)c(N[C@H]4[C@@H](C(N)=O)[C@@H]5C=C[C@H]4C5)n3)cn2)c1 [Example 160, (1S,2S,3R,4R)-3-{[5-bromo-2-({1-[2-(3-methoxyphenyl)ethyl]-1H-pyrazol-4-yl}amino)pyrimidin-4-yl]amino}bicyclo[2.2.1]hept-5-ene-2-carboxamide]
9 | < 100 | < 100 | < 100 | NC(=O)[C@@H]1[C@H](Nc2nc(Nc3cnn(Cc4ccccc4Cl)c3)ncc2Cl)[C@H]2C=C[C@@H]1C2 [Example 161, (1S,2S,3R,4R)-3-[(5-chloro-2-{[1-(2-chlorobenzyl)-1H-pyrazol-4-yl]amino}pyrimidin-4-yl)amino]bicyclo[2.2.1]hept-5-ene-2-carboxamide]
10 | < 100 | < 100 | < 100 | NC(=O)[C@@H]1[C@H](Nc2nc(Nc3cnn(Cc4ccc(Cl)cc4)c3)ncc2Cl)[C@H]2C=C[C@@H]1C2 [Example 162, (1S,2S,3R,4R)-3-[(5-chloro-2-{[1-(4-chlorobenzyl)-1H-pyrazol-4-yl]amino}pyrimidin-4-yl)amino]bicyclo[2.2.1]hept-5-ene-2-carboxamide]
11 | < 100 | < 100 | 100 to 1000 | Cn1cc(Nc2ncc(Cl)c(N[C@H]3[C@@H](C(N)=O)C[C@H]4C[C@@H]3C4(C)C)n2)cn1 [Example 165, (1R,2R,3S,5R)-2-({5-chloro-2-[(1-methyl-1H-pyrazol-4-yl)amino]pyrimidin-4-yl}amino)-6,6-dimethylbicyclo[3.1.1]heptane-3-carboxamide]
12 | < 100 | < 100 | 100 to 1000 | Cn1cc(Nc2ncc(C(F)(F)F)c(N[C@H]3[C@@H](C(N)=O)C[C@H]4C[C@@H]3C4(C)C)n2)cn1 [Example 167, (1R,2R,3S,5R)-6,6-dimethyl-2-({2-[(1-methyl-1H-pyrazol-4-yl)amino]-5-(trifluoromethyl)pyrimidin-4-yl}amino)bicyclo[3.1.1]heptane-3-carboxamide]
13 | < 100 | < 100 | 100 to 1000 | CCn1cc(Nc2ncc(C(F)(F)F)c(N[C@H]3[C@@H](C(N)=O)C[C@H]4C[C@@H]3C4(C)C)n2)cn1 [Example 168, (1R,2R,3S,5R)-2-({2-[(1-ethyl-1H-pyrazol-4-yl)amino]-5-(trifluoromethyl)pyrimidin-4-yl}amino)-6,6-dimethylbicyclo[3.1.1]heptane-3-carboxamide]
14 | < 100 | < 100 | < 100 | Cc1c(Nc2ncc(Cl)c(N[C@H]3[C@@H](C(N)=O)[C@@H]4C=C[C@H]3C4)n2)cnn1C [Example 169, (1S,2S,3R,4R)-3-({5-chloro-2-[(1,5-dimethyl-1H-pyrazol-4-yl)amino]pyrimidin-4-yl}amino)bicyclo[2.2.1]hept-5-ene-2-carboxamide]
15 | < 100 | < 100 | < 100 | Cc1c(Nc2ncc(Br)c(N[C@H]3[C@@H](C(N)=O)[C@@H]4C=C[C@H]3C4)n2)cnn1C [Example 170, (1S,2S,3R,4R)-3-({5-bromo-2-[(1,5-dimethyl-1H-pyrazol-4-yl)amino]pyrimidin-4-yl}amino)bicyclo[2.2.1]hept-5-ene-2-carboxamide]
16 | < 100 | < 100 | < 100 | NC(=O)[C@@H]1[C@H](Nc2nc(Nc3cnn(Cc4ccccc4Cl)c3)ncc2Br)[C@H]2C=C[C@@H]1C2 [Example 171, (1S,2S,3R,4R)-3-[(5-bromo-2-{[1-(2-chlorobenzyl)-1H-pyrazol-4-yl]amino}pyrimidin-4-yl)amino]bicyclo[2.2.1]hept-5-ene-2-carboxamide]
17 | < 100 | < 100 | < 100 | NC(=O)[C@@H]1[C@H](Nc2nc(Nc3cnn(Cc4ccc(Cl)cc4)c3)ncc2Br)[C@H]2C=C[C@@H]1C2 [Example 172, (1S,2S,3R,4R)-3-[(5-bromo-2-{[1-(4-chlorobenzyl)-1H-pyrazol-4-yl]amino}pyrimidin-4-yl)amino]bicyclo[2.2.1]hept-5-ene-2-carboxamide]
18 | < 100 | < 100 | < 100 | NC(=O)[C@@H]1[C@H](Nc2nc(Nc3cnn(-c4ccccc4)c3)ncc2Br)[C@H]2C=C[C@@H]1C2 [Example 173, (1S,2S,3R,4R)-3-({5-bromo-2-[(1-phenyl-1H-pyrazol-4-yl)amino]pyrimidin-4-yl}amino)bicyclo[2.2.1]hept-5-ene-2-carboxamide]
19 | < 100 | < 100 | < 100 | NC(=O)[C@@H]1[C@H](Nc2nc(Nc3cnn(-c4ccccc4)c3)ncc2Cl)[C@H]2C=C[C@@H]1C2 [Example 174, (1S,2S,3R,4R)-3-({5-chloro-2-[(1-phenyl-1H-pyrazol-4-yl)amino]pyrimidin-4-yl}amino)bicyclo[2.2.1]hept-5-ene-2-carboxamide]
20 | < 100 | < 100 | < 100 | Cc1cccc(Cn2cc(Nc3ncc(Cl)c(N[C@H]4[C@@H](C(N)=O)[C@@H]5C=C[C@H]4C5)n3)cn2)c1 [Example 178, (1S,2S,3R,4R)-3-[(5-chloro-2-{[1-(3-methylbenzyl)-1H-pyrazol-4-yl]amino}pyrimidin-4-yl)amino]bicyclo[2.2.1]hept-5-ene-2-carboxamide]
21 | < 100 | < 100 | < 100 | NC(=O)[C@@H]1[C@H](Nc2nc(Nc3cnn(Cc4ccc5ccccc5c4)c3)ncc2Cl)[C@H]2C=C[C@@H]1C2 [Example 179, (1S,2S,3R,4R)-3-[(5-chloro-2-{[1-(2-naphthylmethyl)-1H-pyrazol-4-yl]amino}pyrimidin-4-yl)amino]bicyclo[2.2.1]hept-5-ene-2-carboxamide]
22 | < 100 | < 100 | < 100 | COc1ccc(Cn2cc(Nc3ncc(Cl)c(N[C@H]4[C@@H](C(N)=O)[C@@H]5C=C[C@H]4C5)n3)cn2)cc1F [Example 192, (1S,2S,3R,4R)-3-[(5-chloro-2-{[1-(3-fluoro-4-methoxybenzyl)-1H-pyrazol-4-yl]amino}pyrimidin-4-yl)amino]bicyclo[2.2.1]hept-5-ene-2-carboxamide]
